{"source": "patent US8546381B2", "about": "“Bridged heterocyclic compounds and methods of use” (Medivation Technologies, Inc., priority 2008, dated 2013)", "key": {"[1]": {"molecular_target": "T1, human recombinant histamine H2 receptor (Homo sapiens, UniProt P25021)", "T1 construct": "expressed in transfected cells; host or cells: CHO-K1 cells", "T1 sequence (P25021 whole entry)": "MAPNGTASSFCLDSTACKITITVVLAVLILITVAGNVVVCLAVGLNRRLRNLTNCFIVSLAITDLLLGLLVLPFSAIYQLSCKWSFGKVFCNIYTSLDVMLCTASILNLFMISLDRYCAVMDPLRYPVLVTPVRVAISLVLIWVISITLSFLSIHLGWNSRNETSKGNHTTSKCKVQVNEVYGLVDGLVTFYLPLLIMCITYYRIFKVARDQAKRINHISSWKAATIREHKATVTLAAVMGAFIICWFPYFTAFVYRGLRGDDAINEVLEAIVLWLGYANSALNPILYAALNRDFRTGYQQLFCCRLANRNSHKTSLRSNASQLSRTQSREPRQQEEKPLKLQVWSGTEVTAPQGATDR", "assay": "Histamine H2 radioligand binding ([125I]Aminopotentidine)", "conditions": "compound at 1 μM; inhibition of specific [125I]Aminopotentidine binding; read-out: Histamine Binding (1 μM) H2, Percentage Inhibition", "summary_of_the_method": "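CHO-K1 membranes expressing the receptor were incubated in 50 mM phosphate buffer, pH 7.4, with 0.1 nM [125I]aminopotentidine for 120 min at 25°C; 3 μM tiotidine defined non-specific binding.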"}, "[2]": {"molecular_target": "T2, human recombinant histamine H1 receptor (Homo sapiens, UniProt P35367)", "T2 construct": "expressed in transfected cells; host or cells: CHO cells", "T2 sequence (P35367 whole entry)": "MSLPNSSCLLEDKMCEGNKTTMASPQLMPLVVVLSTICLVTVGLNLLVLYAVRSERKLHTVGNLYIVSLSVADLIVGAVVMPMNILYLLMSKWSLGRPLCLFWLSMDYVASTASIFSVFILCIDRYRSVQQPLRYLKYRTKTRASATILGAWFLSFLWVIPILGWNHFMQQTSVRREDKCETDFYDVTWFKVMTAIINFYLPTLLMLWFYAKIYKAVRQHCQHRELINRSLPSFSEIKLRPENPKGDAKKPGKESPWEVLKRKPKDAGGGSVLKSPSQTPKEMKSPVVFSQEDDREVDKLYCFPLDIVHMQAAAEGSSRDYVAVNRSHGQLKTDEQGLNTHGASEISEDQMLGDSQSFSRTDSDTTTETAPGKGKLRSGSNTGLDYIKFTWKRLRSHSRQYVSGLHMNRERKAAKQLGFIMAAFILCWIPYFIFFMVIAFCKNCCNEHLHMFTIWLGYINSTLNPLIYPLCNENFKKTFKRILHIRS", "assay": "Histamine H1 radioligand binding ([3H]Pyrilamine)", "conditions": "compound at 1 μM; inhibition of specific [3H]Pyrilamine binding; read-out: Histamine Binding (1 μM) H1, Percentage Inhibition", "summary_of_the_method": "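Membranes from CHO cells expressing human H1 receptor were incubated with 1.2 nM [3H]pyrilamine for 180 min at 25° C in Tris-HCl buffer pH 7.4. Non-specific binding defined with 1 μM pyrilamine; compounds tested at 1 μM or lower in 1% DMSO. Results are given as % inhibition of specific binding.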"}, "[3]": {"molecular_target": "T3, human recombinant adrenergic α2A receptor (Homo sapiens, UniProt P08913)", "T3 construct": "expressed in transfected cells; host or cells: insect Sf9 cells", "T3 sequence (P08913 1-465)": "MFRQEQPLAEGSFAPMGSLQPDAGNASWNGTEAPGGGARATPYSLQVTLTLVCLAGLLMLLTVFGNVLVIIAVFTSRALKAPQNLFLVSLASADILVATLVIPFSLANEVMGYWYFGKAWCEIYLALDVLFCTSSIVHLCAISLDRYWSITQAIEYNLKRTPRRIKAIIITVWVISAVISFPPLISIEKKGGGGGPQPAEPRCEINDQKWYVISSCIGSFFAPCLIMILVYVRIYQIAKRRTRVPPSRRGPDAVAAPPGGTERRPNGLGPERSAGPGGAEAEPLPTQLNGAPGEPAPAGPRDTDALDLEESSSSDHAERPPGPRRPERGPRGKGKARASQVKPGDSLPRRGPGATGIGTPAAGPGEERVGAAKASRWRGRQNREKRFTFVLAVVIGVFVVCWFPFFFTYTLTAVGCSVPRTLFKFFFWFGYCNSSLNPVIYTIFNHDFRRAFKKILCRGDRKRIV", "assay": "Adrenergic α2A radioligand binding ([3H]MK-912)", "conditions": "1 μM; read-out: Adrenergic α2A, inhibition of ligand binding (1 μM)", "protocol": "To evaluate in radioligand binding assays the activity of compounds of the invention, human recombinant adrenergic α2A receptor expressed in insect Sf9 cells (Uhlen S et al. J Pharmacol Exp Ther. 271:1558, 1994) in a modified Tris-HCl buffer (50 mM Tris-HCl, pH 7.4, 12.5 mM MgCl2, 2 mM EDTA) was used. Compounds of invention were incubated with 1 nM [^3H]MK-912 for 60 minutes at 25° C. MK912 is (2S-trans)-1,3,4,5′,6,6′,7,12b-octahydro-1′,3′-dimethyl-spiro[2H-benzofuro[2,3-a]quinolizine-2,4′(1′H) -pyrimidin]-2′(3′H)-one hydrochloride Non-specific binding was estimated in the presence of 10 μM WB-4101 (2-(2,6-Dimethoxyphenoxyethyl)aminomethyl-1,4-benzodioxane hydrochloride). Receptor proteins were filtered and washed, the filters were then counted to determine [^3H]MK-912 specifically bound. Compounds were screened at 1 μM or lower, using 1% DMSO as vehicle. Biochemical assay results are presented as the percent inhibition of specific binding in Table 3."}, "[4]": {"molecular_target": "T4, human recombinant dopamine D2L receptor (Homo sapiens, UniProt P14416)", "T4 construct": "expressed in transfected cells; host or cells: CHO cells", "T4 sequence (P14416 whole entry)": "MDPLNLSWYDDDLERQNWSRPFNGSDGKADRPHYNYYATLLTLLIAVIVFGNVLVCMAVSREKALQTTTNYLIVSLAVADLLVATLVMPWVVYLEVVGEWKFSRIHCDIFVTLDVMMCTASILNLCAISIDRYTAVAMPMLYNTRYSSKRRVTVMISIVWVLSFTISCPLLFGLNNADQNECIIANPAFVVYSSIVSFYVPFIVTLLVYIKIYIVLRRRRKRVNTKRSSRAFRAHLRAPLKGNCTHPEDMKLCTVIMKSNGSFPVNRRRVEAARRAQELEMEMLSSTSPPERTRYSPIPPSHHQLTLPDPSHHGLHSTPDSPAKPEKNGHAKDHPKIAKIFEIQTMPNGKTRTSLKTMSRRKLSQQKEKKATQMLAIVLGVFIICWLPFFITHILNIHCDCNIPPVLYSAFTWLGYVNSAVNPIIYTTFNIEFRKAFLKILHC", "assay": "Dopamine D2L radioligand binding ([3H]Spiperone)", "conditions": "read-out: Dopamine (1 μM) D2L, inhibition of ligand binding", "summary_of_the_method": "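Receptor expressed in CHO cells, in Tris-HCl pH 7.4 buffer with 150 mM NaCl. Binding used 0.16 nM [3H]spiperone for 120 min at 25 °C, with non-specific binding defined by 10 μM haloperidol and filtration counting.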"}}}
{"smiles": "CN1C2CCC1c1c(n(CC(=O)c3ccc(Cl)cc3)c3ccc(Cl)cc13)C2", "note": "(stereo not shown) [Compound 111]", "values": [{"measurement": "inhibition at 1 µM", "setting": "[1]", "result": 33, "unit": "%"}, {"measurement": "inhibition at 1 µM", "setting": "[2]", "result": 66, "unit": "%"}, {"measurement": "inhibition at 1 µM", "setting": "[3]", "result": 89, "unit": "%"}, {"measurement": "inhibition at 1 µM", "setting": "[4]", "result": 6, "unit": "%"}]}
{"smiles": "Cc1ccc2c(c1)c1c(n2CCc2nc(-c3ccccc3)cs2)CC2CCC1N2C", "note": "(stereo not shown) [Compound 114]", "values": [{"measurement": "inhibition at 1 µM", "setting": "[1]", "result": 10, "unit": "%"}, {"measurement": "inhibition at 1 µM", "setting": "[2]", "result": 93, "unit": "%"}, {"measurement": "inhibition at 1 µM", "setting": "[3]", "result": 46, "unit": "%"}, {"measurement": "inhibition at 1 µM", "setting": "[4]", "result": 11, "unit": "%"}]}
{"smiles": "C/C(=C\\n1c2c(c3cc(C)ccc31)C1CCC(C2)N1C)c1ccc(Cl)cc1", "note": "(stereo not shown) [Compound 116]", "values": [{"measurement": "inhibition at 1 µM", "setting": "[1]", "result": 81, "unit": "%"}, {"measurement": "inhibition at 1 µM", "setting": "[2]", "result": 23, "unit": "%"}, {"measurement": "inhibition at 1 µM", "setting": "[3]", "result": 83, "unit": "%"}, {"measurement": "inhibition at 1 µM", "setting": "[4]", "result": -2, "unit": "%"}]}
{"smiles": "C/C(=C/n1c2c(c3ccccc31)[C@@H]1CC[C@H](C2)N1C)c1ccc(F)cc1", "note": "[Compound 121]", "values": [{"measurement": "inhibition at 1 µM", "setting": "[1]", "result": 21, "unit": "%"}, {"measurement": "inhibition at 1 µM", "setting": "[2]", "result": 17, "unit": "%"}, {"measurement": "inhibition at 1 µM", "setting": "[3]", "result": 55, "unit": "%"}, {"measurement": "inhibition at 1 µM", "setting": "[4]", "result": 19, "unit": "%"}]}
{"smiles": "C/C(=C\\n1c2c(c3cc(Cl)ccc31)C1CCC(C2)N1C)c1ccc(F)cc1", "note": "(stereo not shown) [Compound 123]", "values": [{"measurement": "inhibition at 1 µM", "setting": "[1]", "result": 93, "unit": "%"}, {"measurement": "inhibition at 1 µM", "setting": "[2]", "result": 62, "unit": "%"}, {"measurement": "inhibition at 1 µM", "setting": "[3]", "result": 95, "unit": "%"}, {"measurement": "inhibition at 1 µM", "setting": "[4]", "result": 80, "unit": "%"}]}
{"smiles": "C/C(=C\\n1c2c(c3cc(C)ccc31)C1CCC(C2)N1C)c1ccc(F)cc1", "note": "(stereo not shown) [Compound 124]", "values": [{"measurement": "inhibition at 1 µM", "setting": "[1]", "result": 79, "unit": "%"}, {"measurement": "inhibition at 1 µM", "setting": "[2]", "result": 31, "unit": "%"}, {"measurement": "inhibition at 1 µM", "setting": "[3]", "result": 91, "unit": "%"}, {"measurement": "inhibition at 1 µM", "setting": "[4]", "result": 33, "unit": "%"}]}
{"smiles": "C/C(=C\\n1c2c(c3cc(Cl)ccc31)C1CCC(C2)N1C)c1ccc(Cl)cc1", "note": "(stereo not shown) [Compound 125]", "values": [{"measurement": "inhibition at 1 µM", "setting": "[1]", "result": 96, "unit": "%"}, {"measurement": "inhibition at 1 µM", "setting": "[2]", "result": 82, "unit": "%"}, {"measurement": "inhibition at 1 µM", "setting": "[3]", "result": 92, "unit": "%"}, {"measurement": "inhibition at 1 µM", "setting": "[4]", "result": 5, "unit": "%"}]}
{"smiles": "COc1ccc(/C(C)=C/n2c3c(c4cc(Cl)ccc42)C2CCC(C3)N2C)cc1F", "note": "(stereo not shown) [Compound 136]", "values": [{"measurement": "inhibition at 1 µM", "setting": "[1]", "result": 100, "unit": "%"}, {"measurement": "inhibition at 1 µM", "setting": "[2]", "result": 69, "unit": "%"}, {"measurement": "inhibition at 1 µM", "setting": "[3]", "result": 91, "unit": "%"}, {"measurement": "inhibition at 1 µM", "setting": "[4]", "result": 11, "unit": "%"}]}
{"smiles": "CN1C2CCC1c1c(n(C#Cc3ccc(F)cc3)c3ccc(Cl)cc13)C2", "note": "(stereo not shown) [Compound 138]", "values": [{"measurement": "inhibition at 1 µM", "setting": "[1]", "result": 70, "unit": "%"}, {"measurement": "inhibition at 1 µM", "setting": "[2]", "result": 57, "unit": "%"}, {"measurement": "inhibition at 1 µM", "setting": "[3]", "result": 95, "unit": "%"}, {"measurement": "inhibition at 1 µM", "setting": "[4]", "result": 42, "unit": "%"}]}
{"smiles": "Cc1ccc(C#Cn2c3c(c4cc(Cl)ccc42)C2CCC(C3)N2C)cn1", "note": "(stereo not shown) [Compound 139]", "values": [{"measurement": "inhibition at 1 µM", "setting": "[1]", "result": 34, "unit": "%"}, {"measurement": "inhibition at 1 µM", "setting": "[2]", "result": 57, "unit": "%"}, {"measurement": "inhibition at 1 µM", "setting": "[3]", "result": 93, "unit": "%"}, {"measurement": "inhibition at 1 µM", "setting": "[4]", "result": -4, "unit": "%"}]}
{"smiles": "Cc1ccc2c(c1)c1c(n2C#Cc2ccc(F)cc2)CC2CCC1N2C", "note": "(stereo not shown) [Compound 141]", "values": [{"measurement": "inhibition at 1 µM", "setting": "[1]", "result": 25, "unit": "%"}, {"measurement": "inhibition at 1 µM", "setting": "[2]", "result": 2, "unit": "%"}, {"measurement": "inhibition at 1 µM", "setting": "[3]", "result": 61, "unit": "%"}, {"measurement": "inhibition at 1 µM", "setting": "[4]", "result": -4, "unit": "%"}]}
{"smiles": "CN1C2CCC1c1c(n(C#Cc3ccc(Cl)cc3)c3ccc(Cl)cc13)C2", "note": "(stereo not shown) [Compound 142]", "values": [{"measurement": "inhibition at 1 µM", "setting": "[1]", "result": 71, "unit": "%"}, {"measurement": "inhibition at 1 µM", "setting": "[2]", "result": 34, "unit": "%"}, {"measurement": "inhibition at 1 µM", "setting": "[3]", "result": 82, "unit": "%"}, {"measurement": "inhibition at 1 µM", "setting": "[4]", "result": 0, "unit": "%"}]}
{"smiles": "COc1ccc(C(C)(O)Cn2c3c(c4cc(Cl)ccc42)C2CCC(C3)N2C)cc1F", "note": "(stereo not shown) [Compound 160]", "values": [{"measurement": "inhibition at 1 µM", "setting": "[1]", "result": 22, "unit": "%"}, {"measurement": "inhibition at 1 µM", "setting": "[2]", "result": 86, "unit": "%"}, {"measurement": "inhibition at 1 µM", "setting": "[3]", "result": 63, "unit": "%"}, {"measurement": "inhibition at 1 µM", "setting": "[4]", "result": 7, "unit": "%"}]}
{"smiles": "COc1ccc(C(C)(O)Cn2c3c(c4cc(C)ccc42)C2CCC(C3)N2C)cc1F", "note": "(stereo not shown) [Compound 161]", "values": [{"measurement": "inhibition at 1 µM", "setting": "[1]", "result": 20, "unit": "%"}, {"measurement": "inhibition at 1 µM", "setting": "[2]", "result": 84, "unit": "%"}, {"measurement": "inhibition at 1 µM", "setting": "[3]", "result": 55, "unit": "%"}, {"measurement": "inhibition at 1 µM", "setting": "[4]", "result": 12, "unit": "%"}]}
{"smiles": "Cc1ccc2c(c1)c1c(n2C(=O)Cc2ccc(Cl)cc2)CC2CCC1N2C", "note": "(stereo not shown) [Compound 162]", "values": [{"measurement": "inhibition at 1 µM", "setting": "[1]", "result": 47, "unit": "%"}, {"measurement": "inhibition at 1 µM", "setting": "[2]", "result": 0, "unit": "%"}, {"measurement": "inhibition at 1 µM", "setting": "[3]", "result": 59, "unit": "%"}, {"measurement": "inhibition at 1 µM", "setting": "[4]", "result": 2, "unit": "%"}]}
{"smiles": "C/C(=C\\n1c2c(c3cc(C)ccc31)C1CCC(C2)N1C)c1ccc(Cl)cc1Cl", "note": "(stereo not shown) [Compound 163]", "values": [{"measurement": "inhibition at 1 µM", "setting": "[1]", "result": 66, "unit": "%"}, {"measurement": "inhibition at 1 µM", "setting": "[2]", "result": 72, "unit": "%"}, {"measurement": "inhibition at 1 µM", "setting": "[3]", "result": 95, "unit": "%"}, {"measurement": "inhibition at 1 µM", "setting": "[4]", "result": -16, "unit": "%"}]}
